Measured values from PubChem BioAssay (NCI).
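Five concentrations, 48 hours, 96-well plates. Here, GI50 denotes the concentration required for 50% inhibition of growth. TGI is the concentration that stops growth completely.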

Assays:
Assay in all cases: DTP human tumour cell line panel, 48 h
HS 578T breast = test system: HS 578T breast
RPMI-8226 leukemia = test system: RPMI-8226 leukemia
EKVX NSCLC = test system: EKVX NSCLC
SNB-19 CNS = test system: SNB-19 CNS
RXF 393 renal = test system: RXF 393 renal
SNB-75 CNS = test system: SNB-75 CNS
HOP-62 NSCLC = test system: HOP-62 NSCLC
HL-60(TB) leukemia = test system: HL-60(TB) leukemia
SK-MEL-2 melanoma = test system: SK-MEL-2 melanoma
SR leukemia = test system: SR leukemia
SW-620 colon = test system: SW-620 colon
NCI-H226 lung = test system: NCI-H226 lung
NCI-H460 lung = test system: NCI-H460 lung

`C#C[C@]1(O)CC[C@H]2[C@@H]3CC=C4c5nc(Nc6ncccn6)sc5CC[C@]4(C)[C@H]3CC[C@@]21C` was tested, and the GI50 (HS 578T breast) was 1250 nM, the TGI (HS 578T breast) was 4140 nM and the GI50 (RPMI-8226 leukemia) was 421 nM. It also gave a TGI (RPMI-8226 leukemia) of 2110 nM, a GI50 (EKVX NSCLC) of 2990 nM and a TGI (EKVX NSCLC) greater than 100000 nM. The GI50 (SNB-19 CNS) was 2770 nM, the TGI (SNB-19 CNS) was greater than 100000 nM and the GI50 (RXF 393 renal) was 451 nM. The TGI (RXF 393 renal) was 1690 nM.
`[2H]C([2H])([2H])Oc1cc(F)ccc1/C=C/C(=O)/C=C(/C=C/c1ccc(F)cc1OC([2H])([2H])[2H])OB(F)F` was tested, and the GI50 (HS 578T breast) was 5670 nM, the TGI (HS 578T breast) was greater than 100000 nM and the GI50 (SNB-75 CNS) was 2390 nM. It also gave a TGI (SNB-75 CNS) greater than 100000 nM, a GI50 (HOP-62 NSCLC) of 3110 nM and a TGI (HOP-62 NSCLC) greater than 100000 nM. For the same molecule, the GI50 (SNB-19 CNS) was 3470 nM, the TGI (SNB-19 CNS) was greater than 100000 nM and the GI50 (HL-60(TB) leukemia) was 1680 nM. The TGI (HL-60(TB) leukemia) was 6670 nM, the GI50 (SK-MEL-2 melanoma) was 2990 nM and the TGI (SK-MEL-2 melanoma) was greater than 100000 nM. For the same molecule, the GI50 (SR leukemia) was 2670 nM and the TGI (SR leukemia) was greater than 100000 nM.
`C[C@H]1[C@H](C)CC[C@]2(C(=O)OCCCC[P+](c3ccccc3)(c3ccccc3)c3ccccc3)CC[C@]3(C)C(=CC[C@@H]4[C@@]5(C)CC[C@H](OC(=O)C(Cl)Cl)C(C)(C)[C@@H]5CC[C@]43C)[C@H]12` showed a GI50 (SW-620 colon) of 349 nM, a TGI (SW-620 colon) of 1290 nM and a GI50 (NCI-H226 lung) of 354 nM. The TGI (NCI-H226 lung) was 1820 nM, the GI50 (NCI-H460 lung) was 283 nM and the TGI (NCI-H460 lung) was 975 nM.
